Reference: US8932597B2 (priority 2008, dated 2015)

Tested on: anti-M2 human monoclonal antibody Z3G1
Format: binding

| Substance | Signal (peptides that bind to Z3G1) | Signal (peptides that show specific binding to Z3G1) | Binding to Z3G1 (in words) |
| --- | --- | --- | --- |
| 1310 (MSLLTEVWTPIRNEWGCRCN; epitope peptide) [compound 1310] | 2546 |  |  |
| 1480 (CEVETPIRNELLTEVETPICEVETPIRNE; epitope peptide; MISC_FEATURE (1)..(1): C is an attachment site for a CLIP; MISC_FEATURE (10)..(10): E is an attachment site for a CLIP; MISC_FEATURE (11)..(11): L is an attachment site for a CLIP; MISC_FEATURE (29)..(29): E is an attachment site for a CLIP) [compound 1480] | 1394 |  |  |
| 1374 (SLLTEVETPIRNECGC; epitope peptide) [compound 1374] | 1660 |  |  |
| 1442 (CLTEVETPIRLLTEVETPICLTEVETPIR; epitope peptide; MISC_FEATURE (1)..(1): C is an attachment site for a CLIP; MISC_FEATURE (10)..(10): R is an attachment site for a CLIP; MISC_FEATURE (11)..(11): L is an attachment site for a CLIP; MISC_FEATURE (29)..(29): R is an attachment site for a CLIP) [compound 1442] | 2057 |  |  |
| 1351 (MSLLCEVGMSCLCEC; epitope peptide) [compound 1351] | 2492 |  |  |
| 1282 (MSLLFEVETPIRNEWGCRCN; epitope peptide) [compound 1282] | 2581 |  |  |
| 1555 (SLLTCVGSLLCEV; epitope peptide) [compound 1555] |  | 2264 |  |
| 1389 (SLLCEVETPIRNCWG; epitope peptide) [compound 1389] | 2789 |  |  |
| 1582 (SLLGEVETPIRNEWGCRCNDSSD; epitope peptide) [compound 1582] |  | 2301 |  |
| 1361 (SLLCEVETPIRNC; epitope peptide) [compound 1361] | 2460 |  |  |
| 1316 (CSLLCEVETPIRNE; epitope peptide) [compound 1316] | 2527 |  |  |
| 1375 (SLLTEVETPIRNEWCC; epitope peptide) [compound 1375] | 1813 |  |  |
| 1364 (SLLCEVETPCRNE; epitope peptide) [compound 1364] | 2035 |  |  |
| 1511 (CLTEVETPIRLLTEVETPICETPIRNEWG; epitope peptide; MISC_FEATURE (1)..(1): C is an attachment site for a CLIP; MISC_FEATURE (10)..(10): R is an attachment site for a CLIP; MISC_FEATURE (11)..(11): L is an attachment site for a CLIP; MISC_FEATURE (29)..(29): G is an attachment site for a CLIP) [compound 1511] |  | 2175 |  |
| 1573 (QLLTEVETPIRNEWGCRCNDSSD; epitope peptide) [compound 1573] |  | 1627 |  |
| 1363 (SLLCEVETPICNE; epitope peptide) [compound 1363] | 1921 |  |  |
| 1333 (MSLLCEVETPIRNE; epitope peptide) [compound 1333] | 2454 |  |  |
| 1579 (SLLDEVETPIRNEWGCRCNDSSD; epitope peptide) [compound 1579] |  | 2276 |  |
| 1313 (CMSLLCEVETPIRNE; epitope peptide) [compound 1313] | 2582 |  |  |
| 1497 (CVETPIRNEWLLTEVETPICVETPIRNEW; epitope peptide; MISC_FEATURE (1)..(1): C is an attachment site for a CLIP; MISC_FEATURE (10)..(10): W is an attachment site for a CLIP; MISC_FEATURE (11)..(11): L is an attachment site for a CLIP; MISC_FEATURE (29)..(29): W is an attachment site for a CLIP) [compound 1497] | 1817 |  |  |
| 1308 (MSLLTEVPTPIRNEWGCRCN; epitope peptide) [compound 1308] | 2380 |  |  |
| 1277 (MSLRTEVETPIRNEWGCRCN; epitope peptide) [compound 1277] | 2554 |  |  |
| 1323 (MCLLTEVCTPIRNE; epitope peptide) [compound 1323] | 1407 |  |  |
| 1293 (MSLLSEVETPIRNEWGCRCN; epitope peptide) [compound 1293] | 2790 |  |  |
| 1565 (FLLTEVETPIRNEWGCRCNDSSD; epitope peptide) [compound 1565] |  | 1018 |  |

| Substance | Signal (peptides that bind to Z3G1) | Signal (peptides that show specific binding to Z3G1) | Binding to Z3G1 (in words) |
| --- | --- | --- | --- |
| MSLLTEVETPIRNEWGCRCN (epitope peptide) [SEQ ID NO: 1149] |  |  | very best specific binder |
| 1253 (MFLLTEVETPIRNEWGCRCN; epitope peptide) [compound 1253] | 1707 |  |  |
| 1440 (CTEVETPIRNSLLTEVETPCLTEVETPIR; epitope peptide; MISC_FEATURE (1)..(1): C is an attachment site for a CLIP; MISC_FEATURE (10)..(10): N is an attachment site for a CLIP; MISC_FEATURE (11)..(11): S is an attachment site for a CLIP; MISC_FEATURE (29)..(29): R is an attachment site for a CLIP) [compound 1440] | 2705 |  |  |
| 1322 (MCLLTEVECPIRNE; epitope peptide) [compound 1322] | 2421 |  |  |
| 1276 (MSLQTEVETPIRNEWGCRCN; epitope peptide) [compound 1276] | 2792 |  |  |
| 1578 (SLLAEVETPIRNEWGCRCNDSSD; epitope peptide) [compound 1578] |  | 2356 |  |
| 634 (SLLTEVETPIRNEWGCRANDSSD; epitope peptide) [compound 634] |  | 2265 |  |
| 1309 (MSLLTEVRTPIRNEWGCRCN; epitope peptide) [compound 1309] | 2668 |  |  |
| 1496 (CEVETPIRNELLTEVETPICVETPIRNEW; epitope peptide; MISC_FEATURE (1)..(1): C is an attachment site for a CLIP; MISC_FEATURE (10)..(10): E is an attachment site for a CLIP; MISC_FEATURE (11)..(11): L is an attachment site for a CLIP; MISC_FEATURE (29)..(29): W is an attachment site for a CLIP) [compound 1496] | 1625 |  |  |
| 1251 (MDLLTEVETPIRNEWGCRCN; epitope peptide) [compound 1251] | 2726 |  |  |
| 1302 (MSLLTEVGTPIRNEWGCRCN; epitope peptide) [compound 1302] | 2789 |  |  |
| 1462 (CETPIRNEWGLLTEVETPICTEVETPIRN; epitope peptide; MISC_FEATURE (1)..(1): C is an attachment site for a CLIP; MISC_FEATURE (10)..(10): G is an attachment site for a CLIP; MISC_FEATURE (11)..(11): L is an attachment site for a CLIP; MISC_FEATURE (29)..(29): N is an attachment site for a CLIP) [compound 1462] | 1710 |  |  |
| 1291 (MSLLQEVETPIRNEWGCRCN; epitope peptide) [compound 1291] | 2792 |  |  |
| 1474 (CVETPIRNEWSLLTEVETPCEVETPIRNE; epitope peptide; MISC_FEATURE (1)..(1): C is an attachment site for a CLIP; MISC_FEATURE (10)..(10): W is an attachment site for a CLIP; MISC_FEATURE (11)..(11): S is an attachment site for a CLIP; MISC_FEATURE (29)..(29): E is an attachment site for a CLIP) [compound 1474] | 1986 |  |  |
| 1581 (SLLFEVETPIRNEWGCRCNDSSD; epitope peptide) [compound 1581] |  | 2137 |  |
| 1250 (MALLTEVETPIRNEWGCRCN; epitope peptide) [compound 1250] | 2604 |  |  |
| 1557 (CLCTCVGSLLCEV; epitope peptide) [compound 1557] |  | 2246 |  |
| 1329 (MSLLCEVETCIRNE; epitope peptide) [compound 1329] | 2589 |  |  |
| 1338 (MSLLCEVGMSLCTEV; epitope peptide) [compound 1338] | 2595 |  |  |
| 1284 (MSLLHEVETPIRNEWGCRCN; epitope peptide) [compound 1284] | 2691 |  |  |
| 1498 (CETPIRNEWGLLTEVETPICVETPIRNEW; epitope peptide; MISC_FEATURE (1)..(1): C is an attachment site for a CLIP; MISC_FEATURE (10)..(10): G is an attachment site for a CLIP; MISC_FEATURE (11)..(11): L is an attachment site for a CLIP; MISC_FEATURE (29)..(29): W is an attachment site for a CLIP) [compound 1498] | 1817 |  |  |
| 1461 (CVETPIRNEWLLTEVETPICTEVETPIRN; epitope peptide; MISC_FEATURE (1)..(1): C is an attachment site for a CLIP; MISC_FEATURE (10)..(10): W is an attachment site for a CLIP; MISC_FEATURE (11)..(11): L is an attachment site for a CLIP; MISC_FEATURE (29)..(29): N is an attachment site for a CLIP) [compound 1461] | 1835 |  |  |
| 1550 (SLLCEVGCLLTEV; epitope peptide) [compound 1550] |  | 1997 |  |
| 1362 (SLLCEVETPIRCE; epitope peptide) [compound 1362] | 2307 |  |  |
| 1305 (MSLLTEVKTPIRNEWGCRCN; epitope peptide) [compound 1305] | 2708 |  |  |
